# According to patent publication US20040102622A1, “Modulation of hepatocyte growth factor receptor expression” (Isis Pharmaceuticals Inc., priority 2002, published 2004):
# Strand notation (5' to 3'): a small letter for the sugar, then the base; units joined by * are phosphorothioate-linked, units joined directly phosphodiester-linked; [ ] holds rarer units or linkages, { } end groups; capitals alone tell only the bases. e = 2'-O-(2-methoxyethyl) (MOE); [5mC] = 5-methylcytosine; d = 2'-deoxy (DNA)
# System: human hepatocyte growth factor receptor mRNA
# Assay: not given
# Conditions: not given
row,Substance,inhibition of human hepatocyte growth factor receptor expression
1,"ISIS 155097: 2′-MOE gapmer, phosphorothioate backbone, sequence cctcggtcagaaattgggaa (antisense CCTCGGTCAGAAATTGGGAA; all phosphorothioate, sugars by position and methylation of C not given here; 2'-MOE gapmer)",at least 35%
2,"ISIS 155098: 2′-MOE gapmer, phosphorothioate backbone, sequence tcagaagtgtcctattaaag (antisense TCAGAAGTGTCCTATTAAAG; all phosphorothioate, sugars by position and methylation of C not given here; 2'-MOE gapmer)",at least 35%
3,"ISIS 155099: 2′-MOE gapmer, phosphorothioate backbone, sequence caggtttttcccaacacctg (antisense CAGGTTTTTCCCAACACCTG; all phosphorothioate, sugars by position and methylation of C not given here; 2'-MOE gapmer)",at least 35%
4,"ISIS 155101: 2′-MOE gapmer, phosphorothioate backbone, sequence ttcagccacaggaaaaaccc (antisense TTCAGCCACAGGAAAAACCC; all phosphorothioate, sugars by position and methylation of C not given here; 2'-MOE gapmer)",at least 35%
5,"ISIS 155102: 2′-MOE gapmer, phosphorothioate backbone, sequence gagaggcattgactgcagga (antisense GAGAGGCATTGACTGCAGGA; all phosphorothioate, sugars by position and methylation of C not given here; 2'-MOE gapmer)",at least 35%
6,"ISIS 155103: 2′-MOE gapmer, phosphorothioate backbone, sequence tgggaagctgatacttcata (antisense TGGGAAGCTGATACTTCATA; all phosphorothioate, sugars by position and methylation of C not given here; 2'-MOE gapmer)",at least 35%
7,"ISIS 155104: 2′-MOE gapmer, phosphorothioate backbone, sequence atgcaatggatgatctggga (antisense ATGCAATGGATGATCTGGGA; all phosphorothioate, sugars by position and methylation of C not given here; 2'-MOE gapmer)",at least 35%
8,"ISIS 155105: 2′-MOE gapmer, phosphorothioate backbone, sequence atcaaagtatttggaaagga (antisense ATCAAAGTATTTGGAAAGGA; all phosphorothioate, sugars by position and methylation of C not given here; 2'-MOE gapmer)",at least 35%
9,"ISIS 155106: 2′-MOE gapmer, phosphorothioate backbone, sequence cacaacctgcatgaagcgac (antisense CACAACCTGCATGAAGCGAC; all phosphorothioate, sugars by position and methylation of C not given here; 2'-MOE gapmer)",at least 35%
10,"ISIS 155107: 2′-MOE gapmer, phosphorothioate backbone, sequence tccgcggtgaagttgggaag (antisense TCCGCGGTGAAGTTGGGAAG; all phosphorothioate, sugars by position and methylation of C not given here; 2'-MOE gapmer)",at least 35%

# System: human hepatocyte growth factor receptor mRNA
# Assay: Inhibition of human hepatocyte growth factor receptor mRNA levels in T-24 cells, quantitative real-time PCR; on % INHIB (inhibition of human hepatocyte growth factor receptor mRNA levels): test concentration or dose not given here
# Conditions: averages from three experiments
row,Substance,% INHIB (inhibition of human hepatocyte growth factor receptor mRNA levels)
1,209543 (antisense eG*eA*eT*eG*e[5mC]*d[5mC]*dA*d[5mC]*d[5mC]*dG*dT*dG*d[5mC]*dA*d[5mC]*eT*eG*eT*eG*e[5mC]) [compound 209543],85%
2,209544 (antisense eT*eA*eA*eT*eA*dG*dT*dG*d[5mC]*dA*dA*dT*dT*dT*dT*eG*eG*e[5mC]*eA*eA) [compound 209544],82%
3,209545 (antisense eA*eA*eT*eA*e[5mC]*dA*dA*dG*dT*d[5mC]*d[5mC]*dT*dA*dT*dA*eA*eT*eA*eG*eT) [compound 209545],10%
4,209546 (antisense eA*eA*eT*eT*e[5mC]*dA*dA*dG*dT*dT*dT*dT*dG*dG*dA*e[5mC]*eT*e[5mC]*e[5mC]*eA) [compound 209546],76%
5,209547 (antisense eT*e[5mC]*e[5mC]*eT*eG*d[5mC]*dT*dT*d[5mC]*dA*dA*dT*dT*dT*d[5mC]*e[5mC]*e[5mC]*eA*eT*eA) [compound 209547],84%
6,209548 (antisense eT*e[5mC]*eA*eA*eG*dA*dA*dG*d[5mC]*d[5mC]*d[5mC]*dT*d[5mC]*dA*dA*eT*eA*eT*eT*eT) [compound 209548],67%
7,209549 (antisense e[5mC]*e[5mC]*eT*eG*eA*dG*d[5mC]*dA*dT*dT*dA*d[5mC]*dT*dA*dT*e[5mC]*eT*e[5mC]*eT*eT) [compound 209549],84%
8,209550 (antisense eT*eG*e[5mC]*eG*e[5mC]*dG*d[5mC]*dT*dG*dT*dA*dG*dT*d[5mC]*d[5mC]*e[5mC]*eA*eG*e[5mC]*eT) [compound 209550],84%
9,209551 (antisense e[5mC]*eT*eT*eG*eG*dG*dA*dG*dG*d[5mC]*dG*dA*dG*dT*dG*eT*e[5mC]*eA*e[5mC]*e[5mC]) [compound 209551],0%
10,209552 (antisense eT*eG*eA*eA*eA*d[5mC]*dT*dT*dT*d[5mC]*dT*dA*dG*dG*dT*eG*eG*eA*eG*eA) [compound 209552],0%
11,209553 (antisense e[5mC]*eG*e[5mC]*e[5mC]*e[5mC]*dA*d[5mC]*dG*dA*d[5mC]*dA*dA*dG*dG*dT*eG*eA*eA*eA*e[5mC]) [compound 209553],0%
12,209554 (antisense eA*eG*eA*eG*eG*dG*dA*dA*dA*dT*d[5mC]*dG*dG*d[5mC]*d[5mC]*e[5mC]*e[5mC]*e[5mC]*eG*e[5mC]) [compound 209554],0%
13,209555 (antisense eG*e[5mC]*eG*e[5mC]*eG*d[5mC]*dT*dG*d[5mC]*d[5mC]*d[5mC]*dT*dG*d[5mC]*d[5mC]*eA*eG*eT*eG*eA) [compound 209555],0%
